Source: US9809623B2, “α4β7 peptide monomer and dimer antagonists” (Protagonist Therapeutics, Inc., priority 2014, dated 2017)
Where two headings read alike, the source gives them in different places. Numbered stars: 1 amine (or outer) side, 2 acyl side, 3 side chain; on linkers, the order of the positions; unused ones are H or OH. Bridge positions count the residues as written; N and C are the ends. Square brackets hold non-standard residues; d marks the D form. Peptide text beside a SMILES is read from it. I, II: the chains in the order shown. X2 = O=C(CCOCCOCCOCCOCCOCCOCCOCCOCCOCCOCCOCCOCCOCCOCCOCCOCCOCCOCCOCCOCCOCCOCCOCCOCCOCCC(=O)[*:2])[*:1]; Phe(4-tBu) = CC(C)(C)c1ccc(C[C@H](N)C(=O)O)cc1; Diglycolyl = O=C(COCC(=O)[*:2])[*:1]; NMeR = CN[C@@H](CCCNC(=N)N)C(=O)O; β3hE = N[C@@H](CCC(=O)O)CC(=O)O; Pen = CC(C)(S)[C@H](N)C(=O)O

Assays:
α4β1 = α4β1 (Homo sapiens, UniProt P05556+P13612); test: α4β1-VCAM Cell Adhesion Assay (Jurkat E6.1 human cells); assay type: cell-based; design: host or cells: Jurkat E6.1 human T cells
Sequence of α4β1 (P13612 34-1032): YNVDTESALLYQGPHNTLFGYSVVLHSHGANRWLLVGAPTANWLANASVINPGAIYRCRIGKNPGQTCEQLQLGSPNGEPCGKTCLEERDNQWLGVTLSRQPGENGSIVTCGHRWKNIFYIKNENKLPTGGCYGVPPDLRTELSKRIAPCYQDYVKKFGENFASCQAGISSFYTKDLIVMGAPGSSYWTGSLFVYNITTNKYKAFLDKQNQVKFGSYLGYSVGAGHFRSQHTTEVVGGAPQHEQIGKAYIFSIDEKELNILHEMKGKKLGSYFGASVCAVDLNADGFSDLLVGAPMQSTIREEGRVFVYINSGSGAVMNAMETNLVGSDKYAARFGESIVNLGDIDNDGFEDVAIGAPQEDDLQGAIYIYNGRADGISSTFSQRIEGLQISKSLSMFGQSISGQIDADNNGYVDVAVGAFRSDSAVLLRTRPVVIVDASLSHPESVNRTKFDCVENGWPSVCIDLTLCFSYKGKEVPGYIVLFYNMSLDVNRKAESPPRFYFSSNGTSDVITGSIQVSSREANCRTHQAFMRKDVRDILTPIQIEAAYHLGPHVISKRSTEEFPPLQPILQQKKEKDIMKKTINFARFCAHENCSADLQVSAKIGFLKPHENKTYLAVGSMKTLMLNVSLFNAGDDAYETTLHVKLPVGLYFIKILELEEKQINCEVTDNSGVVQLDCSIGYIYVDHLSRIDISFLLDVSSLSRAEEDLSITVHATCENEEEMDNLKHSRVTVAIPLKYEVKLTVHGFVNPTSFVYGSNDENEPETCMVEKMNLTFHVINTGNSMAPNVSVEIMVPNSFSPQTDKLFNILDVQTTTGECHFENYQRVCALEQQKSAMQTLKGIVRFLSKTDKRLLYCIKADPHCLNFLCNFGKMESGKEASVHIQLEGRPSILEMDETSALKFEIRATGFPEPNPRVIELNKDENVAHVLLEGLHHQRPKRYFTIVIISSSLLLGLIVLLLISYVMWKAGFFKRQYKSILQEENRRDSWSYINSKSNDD
Sequence of α4β1 (P05556 21-798): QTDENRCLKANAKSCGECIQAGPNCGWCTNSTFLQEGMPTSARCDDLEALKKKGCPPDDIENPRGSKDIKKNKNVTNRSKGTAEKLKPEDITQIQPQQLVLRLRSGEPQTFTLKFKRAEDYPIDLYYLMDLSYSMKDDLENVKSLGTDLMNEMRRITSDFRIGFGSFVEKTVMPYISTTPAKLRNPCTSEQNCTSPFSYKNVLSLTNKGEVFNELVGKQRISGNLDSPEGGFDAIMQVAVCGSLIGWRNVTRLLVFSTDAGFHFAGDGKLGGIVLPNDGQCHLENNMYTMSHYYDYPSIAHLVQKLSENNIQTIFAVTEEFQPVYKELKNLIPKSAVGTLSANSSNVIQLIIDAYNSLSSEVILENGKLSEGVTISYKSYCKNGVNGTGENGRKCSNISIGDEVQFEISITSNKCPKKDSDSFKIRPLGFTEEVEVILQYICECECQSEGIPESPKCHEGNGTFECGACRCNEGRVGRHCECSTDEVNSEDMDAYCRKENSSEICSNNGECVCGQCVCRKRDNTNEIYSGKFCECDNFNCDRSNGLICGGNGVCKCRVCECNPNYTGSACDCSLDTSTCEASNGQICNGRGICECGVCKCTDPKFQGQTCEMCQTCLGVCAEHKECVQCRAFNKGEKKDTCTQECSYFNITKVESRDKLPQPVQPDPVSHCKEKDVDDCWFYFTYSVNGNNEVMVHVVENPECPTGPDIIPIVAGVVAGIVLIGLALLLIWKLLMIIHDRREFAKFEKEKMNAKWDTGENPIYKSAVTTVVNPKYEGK
Protocol: Jurkat E6.1 human cells (Sigma #88042803) were cultured in RPMI 1640 HEPES medium (Invitrogen #22400-089) supplemented with 10% serum (Fetal Bovine Serum, Invitrogen #16140-071), 1 mM sodium pyruvate (Invitrogen #11360-070), 2 mM L-glutamine (Invitrogen #25030-081) and Penicillin-Streptomycin (Invitrogen #15140-122) at 100 units of penicillin and 100 μg of streptomycin per ml. The cells were washed two times in DMEM medium (ATCC #30-2002) supplemented with 0.1% BSA, 10 mM HEPES pH 7 and 1 mM MnCl2. The cells were re-suspended in supplemented DMEM medium at a density of 4×10^6 cells/ml.
A Nunc MaxiSorp plate was coated with rh VCAM-1/CD106 Fc chimera (R&D #862-VC) at 400 ng per well in 50 ul per well in 1×PBS and incubated at 4° C. overnight. The solution was then removed by shaking, blocked with 250 ul per well PBS containing 1% BSA, and incubated at 37° C. for 1 hr. The solution was removed by shaking. Peptides were diluted by serial dilution in a final volume of 50 ul per well (2× concentration). To each well, 50 ul of cells (200,000 cells) were added and the plate was incubated at 37° C., 5% CO2 for 30-45 min to allow cell adhesion. The wells were washed manually three times (100 ul per wash) with supplemented DMEM. After the final wash, 100 ul/well of supplemented DMEM and 10 ul/well of MTT reagent (ATTC cat#30-1010K) were added. The plate was incubated at 37° C., 5% CO2 for 2-3 hrs until a purple precipitate was visible. 100 ul of Detergent Reagent (ATTC cat#30-1010K) was added to each well. The plate was covered from the light, wrapped in Parafilm to prevent evaporation, and left overnight at room temperature in the dark. The plate was shaken for 5 min and the absorbance at 570 nm was measured. To calculate the dose response, the absorbance value of control wells not containing cells was subtracted from each test well.

α4β7 = target: T1, α4β7 (Mus musculus, UniProt P26011+Q00651); test: α4β7 Cell Adhesion Assay (Mouse), TK1 cells; assay type: cell-based
T1 construct: host or cells: TK1 mouse T cells
T1 sequence (Q00651 34-1039 limits assumed): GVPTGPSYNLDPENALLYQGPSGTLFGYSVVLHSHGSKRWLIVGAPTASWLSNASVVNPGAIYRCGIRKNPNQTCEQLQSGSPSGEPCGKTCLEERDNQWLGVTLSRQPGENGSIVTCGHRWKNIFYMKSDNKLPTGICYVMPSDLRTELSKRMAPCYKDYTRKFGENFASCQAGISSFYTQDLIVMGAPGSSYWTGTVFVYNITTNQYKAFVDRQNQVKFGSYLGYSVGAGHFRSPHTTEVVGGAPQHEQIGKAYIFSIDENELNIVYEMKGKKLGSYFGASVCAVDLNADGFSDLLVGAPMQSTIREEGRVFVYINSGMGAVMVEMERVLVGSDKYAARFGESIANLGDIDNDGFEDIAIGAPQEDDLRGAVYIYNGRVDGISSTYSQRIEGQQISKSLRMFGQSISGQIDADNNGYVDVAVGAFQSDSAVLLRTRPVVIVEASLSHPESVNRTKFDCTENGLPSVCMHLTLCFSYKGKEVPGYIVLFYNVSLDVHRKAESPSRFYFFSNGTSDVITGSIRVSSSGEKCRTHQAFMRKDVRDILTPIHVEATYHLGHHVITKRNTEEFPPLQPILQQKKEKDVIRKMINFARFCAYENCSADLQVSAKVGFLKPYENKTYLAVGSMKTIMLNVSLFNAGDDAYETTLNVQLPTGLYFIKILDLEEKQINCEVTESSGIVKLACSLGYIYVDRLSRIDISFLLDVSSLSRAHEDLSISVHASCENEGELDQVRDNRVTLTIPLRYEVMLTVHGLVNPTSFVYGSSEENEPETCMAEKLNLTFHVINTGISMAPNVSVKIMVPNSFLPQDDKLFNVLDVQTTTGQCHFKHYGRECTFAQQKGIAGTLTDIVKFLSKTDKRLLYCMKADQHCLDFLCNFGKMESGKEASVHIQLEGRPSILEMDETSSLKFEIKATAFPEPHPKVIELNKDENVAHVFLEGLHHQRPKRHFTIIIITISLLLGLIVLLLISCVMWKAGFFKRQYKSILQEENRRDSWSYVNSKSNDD
T1 sequence (P26011 20-806): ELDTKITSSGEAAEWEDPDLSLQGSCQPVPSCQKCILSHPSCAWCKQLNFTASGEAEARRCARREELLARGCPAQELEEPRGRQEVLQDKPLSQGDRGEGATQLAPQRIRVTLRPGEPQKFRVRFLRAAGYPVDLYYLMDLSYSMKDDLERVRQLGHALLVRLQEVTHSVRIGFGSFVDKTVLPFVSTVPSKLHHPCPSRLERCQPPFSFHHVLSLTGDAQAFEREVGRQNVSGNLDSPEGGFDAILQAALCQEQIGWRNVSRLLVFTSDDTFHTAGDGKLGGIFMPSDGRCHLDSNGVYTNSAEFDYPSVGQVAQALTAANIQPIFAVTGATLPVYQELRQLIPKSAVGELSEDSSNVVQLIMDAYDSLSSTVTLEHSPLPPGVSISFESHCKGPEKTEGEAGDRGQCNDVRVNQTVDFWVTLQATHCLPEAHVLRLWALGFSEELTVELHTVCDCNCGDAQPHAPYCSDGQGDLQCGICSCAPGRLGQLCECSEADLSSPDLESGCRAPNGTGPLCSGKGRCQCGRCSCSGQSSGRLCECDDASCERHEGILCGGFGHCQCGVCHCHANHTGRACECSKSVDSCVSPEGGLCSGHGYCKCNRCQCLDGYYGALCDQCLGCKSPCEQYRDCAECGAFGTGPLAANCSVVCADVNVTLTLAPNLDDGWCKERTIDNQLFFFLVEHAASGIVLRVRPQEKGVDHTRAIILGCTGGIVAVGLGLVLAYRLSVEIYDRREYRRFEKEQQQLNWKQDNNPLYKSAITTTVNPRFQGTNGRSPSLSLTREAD
Protocol: TK1 cells (ATCC # ATCC-CRL-2396) were cultured in RPMI 1640 with 2 mM L-glutamine adjusted to contain 1.5 g/L sodium bicarbonate, 4.5 g/L glucose, 10 mM HEPES, and 1.0 mM sodium pyruvate (ATCC#30-2001) and supplemented with 0.1 mM non-essential amino acids, (ATCC #30-2116) 0.05 mM 2-mercaptoethanol (Invitrogen #21985) and 10% serum (Fetal Bovine Serum, Invitrogen #16140-071), and Penicillin-Streptomycin (Invitrogen #15140-122) at 100 units of penicillin and 100 μg of streptomycin per ml. The cells were washed two times in DMEM medium (ATCC #30-2002) supplemented with 0.1% BSA, 10 mM HEPES pH 7 and 1 mM MnCl2. The cells were re-suspended in supplemented DMEM medium at a density of 4×10^6 cells/ml.
A Nunc MaxiSorp plate was coated with Recombinant human MAdCAM-1 Fc Chimera (R&D #6065-MC) at 200 ng per well in 100 μl per well in 1×PBS and incubated at 4° C. overnight. The solution was then removed by shaking, blocked with 250 ul per well PBS containing 1% BSA, and incubated at 37° C. for 1 hr. The solution was removed by shaking. DATK 32 (anti-mouse α4β7) and peptides were diluted by serial dilution in a final volume of 50 ul per well (2× concentration). To each well, 50 ul of cells (200,000 cells) are added and the plate is incubated at 37° C., 5% CO2 for 30-45 min to allow cell adhesion. The plate was manually washed three times with supplemented DMEM, 100 ul per wash. After the final wash, 100 ul/well of supplemented DMEM and […] of MTT reagent (ATTC cat#30-1010K) was added to each well. Wells were incubated at 37° C. with 5% CO2 for 2-3 hrs until purple precipitate was visible. 100 μl of Detergent Reagent (ATTC cat#30-1010K) was added to each well. The plate was then wrapped with Para film to prevent evaporation, and left overnight at room temperature in the dark. The plate was shaken for 5 min and the absorbance at 570 nm was measured. To calculate the dose response, the absorbance value of control wells not containing cells was subtracted from each test well.

[1] = Table 3-B, Selectivity (α4β1), range classes, read-out: α4β1 cell IC50
[2] = Table 3-B, Potency (α4β7), range classes, read-out: α4β7 cell(MU) IC50
[3] = Table 4-B, read-out: Cell Adhesion α4β1 IC50

`CC(=O)N[C@@H]1C(=O)N(C)[C@@H](CCCNC(=N)N)C(=O)N[C@@H](CO)C(=O)N[C@@H](CC(=O)O)C(=O)N[C@@H]([C@@H](C)O)C(=O)N[C@@H](CC(C)C)C(=O)N[C@H](C(=O)N[C@@H](Cc2c[nH]c3ccccc23)C(=O)N[C@@H](CCC(=O)O)C(=O)N[C@H](CCCCNC(=O)COCC(=O)NCCCC[C@@H](NC(=O)[C@H](CCC(=O)O)NC(=O)[C@H](Cc2c[nH]c3ccccc23)NC(=O)[C@H]2NC(=O)[C@H](CC(C)C)NC(=O)[C@H]([C@@H](C)O)NC(=O)[C@H](CC(=O)O)NC(=O)[C@H](CO)NC(=O)[C@H](CCCNC(=N)N)N(C)C(=O)[C@@H](NC(C)=O)C(C)(C)SSC2(C)C)C(=O)O)C(=O)O)C(C)(C)SSC1(C)C` [compound 78] (I: Ac-[Pen][NMeR]SDTL[Pen]WE[dK]-OH / II: Ac-[Pen][NMeR]SDTL[Pen]WE[dK]-OH; disulfide I:1-I:7, II:1-II:7; linker I:10-II:10 via Diglycolyl) was tested, and the IC50 (α4β1; [1]) was greater than 100 µM and the IC50 (α4β7; [2]) was less than 0.01 µM.
In the case of `CC(=O)N[C@@H]1C(=O)N(C)[C@@H](CCCNC(=N)N)C(=O)N[C@@H](CO)C(=O)N[C@@H](CC(=O)O)C(=O)N[C@@H]([C@@H](C)O)C(=O)N[C@@H](CC(C)C)C(=O)N[C@H](C(=O)N[C@@H](Cc2c[nH]c3ccccc23)C(=O)N[C@H](CCC(=O)O)C(=O)N[C@H](CCCCNC(=O)COCC(=O)NCCCC[C@@H](NC(=O)[C@@H](CCC(=O)O)NC(=O)[C@H](Cc2c[nH]c3ccccc23)NC(=O)[C@H]2NC(=O)[C@H](CC(C)C)NC(=O)[C@H]([C@@H](C)O)NC(=O)[C@H](CC(=O)O)NC(=O)[C@H](CO)NC(=O)[C@H](CCCNC(=N)N)N(C)C(=O)[C@@H](NC(C)=O)C(C)(C)SSC2(C)C)C(N)=O)C(N)=O)C(C)(C)SSC1(C)C` [compound 68] (I: Ac-[Pen][NMeR]SDTL[Pen]W[dE][dK]-NH2 / II: Ac-[Pen][NMeR]SDTL[Pen]W[dE][dK]-NH2; disulfide I:1-I:7, II:1-II:7; linker I:10-II:10 via Diglycolyl), the IC50 (α4β1; [1]) is reported as greater than 100 µM and the IC50 (α4β7; [2]) is reported as less than 0.01 µM.
Compound `CC(=O)N[C@H]1CSSC[C@@H](C(=O)NCC(=O)N[C@@H](CCC(=O)O)C(=O)N[C@@H](CCCCNC(=O)CCOCCOCCOCCOCCOCCOCCOCCOCCOCCOCCOCCOCCOCCOCCOCCOCCOCCOCCOCCOCCOCCOCCOCCOCCOCCC(=O)NCCCC[C@H](NC(=O)[C@H](CCC(=O)O)NC(=O)CNC(=O)[C@@H]2CSSC[C@H](NC(C)=O)C(=O)N[C@@H](CCCNC(=N)N)C(=O)N[C@@H](CO)C(=O)N[C@@H](CC(=O)O)C(=O)N[C@@H]([C@@H](C)O)C(=O)N[C@@H](CC(C)C)C(=O)N2)C(N)=O)C(N)=O)NC(=O)[C@H](CC(C)C)NC(=O)[C@H]([C@@H](C)O)NC(=O)[C@H](CC(=O)O)NC(=O)[C@H](CO)NC(=O)[C@H](CCCNC(=N)N)NC1=O` [compound 197, (Ac-C-R-S-D-T-L-C-G-E-K-NH2)2-PEG25] (I: Ac-CRSDTLCGEK-NH2 / II: Ac-CRSDTLCGEK-NH2; disulfide I:1-I:7, II:1-II:7; linker I:10-II:10 via X2) has an IC50 (α4β1; [3]) greater than 100 µM.
`CC(=O)N[C@@H]1C(=O)N(C)[C@@H](CCCNC(=N)N)C(=O)N[C@@H](CO)C(=O)N[C@@H](CC(=O)O)C(=O)N[C@@H]([C@@H](C)O)C(=O)N[C@@H](CC(C)C)C(=O)N[C@H](C(=O)N[C@@H](Cc2ccc(C(C)(C)C)cc2)C(=O)N[C@@H](CCC(=O)O)CC(=O)N[C@H](CCCCNC(=O)COCC(=O)NCCCC[C@@H](NC(=O)C[C@H](CCC(=O)O)NC(=O)[C@H](Cc2ccc(C(C)(C)C)cc2)NC(=O)[C@H]2NC(=O)[C@H](CC(C)C)NC(=O)[C@H]([C@@H](C)O)NC(=O)[C@H](CC(=O)O)NC(=O)[C@H](CO)NC(=O)[C@H](CCCNC(=N)N)N(C)C(=O)[C@@H](NC(C)=O)C(C)(C)SSC2(C)C)C(N)=O)C(N)=O)C(C)(C)SSC1(C)C` [compound 132] (I: Ac-[Pen][NMeR]SDTL[Pen][Phe(4-tBu)][β3hE][dK]-NH2 / II: Ac-[Pen][NMeR]SDTL[Pen][Phe(4-tBu)][β3hE][dK]-NH2; disulfide I:1-I:7, II:1-II:7; linker I:10-II:10 via Diglycolyl) was tested, and the IC50 (α4β1; [1]) was greater than 100 µM and the IC50 (α4β7; [2]) was less than 0.01 µM.
In the case of `CC(=O)N[C@@H]1C(=O)N(C)[C@@H](CCCNC(=N)N)C(=O)N[C@@H](CO)C(=O)N[C@@H](CC(=O)O)C(=O)N[C@@H]([C@@H](C)O)C(=O)N[C@@H](CC(C)C)C(=O)N[C@H](C(=O)N[C@@H](Cc2c[nH]c3ccccc23)C(=O)N[C@@H](CCC(=O)O)C(=O)N[C@H](CCCCNC(=O)COCC(=O)NCCCC[C@@H](NC(=O)[C@H](CCC(=O)O)NC(=O)[C@H](Cc2c[nH]c3ccccc23)NC(=O)[C@H]2NC(=O)[C@H](CC(C)C)NC(=O)[C@H]([C@@H](C)O)NC(=O)[C@H](CC(=O)O)NC(=O)[C@H](CO)NC(=O)[C@H](CCCNC(=N)N)N(C)C(=O)[C@@H](NC(C)=O)C(C)(C)SSC2(C)C)C(N)=O)C(N)=O)C(C)(C)SSC1(C)C` [compound 67] (I: Ac-[Pen][NMeR]SDTL[Pen]WE[dK]-NH2 / II: Ac-[Pen][NMeR]SDTL[Pen]WE[dK]-NH2; disulfide I:1-I:7, II:1-II:7; linker I:10-II:10 via Diglycolyl), the IC50 (α4β1; [1]) is reported as greater than 100 µM and the IC50 (α4β7; [2]) is reported as less than 0.01 µM.
In the case of `CC(=O)N[C@@H]1C(=O)N(C)[C@@H](CCCNC(=N)N)C(=O)N[C@@H](CO)C(=O)N[C@@H](CC(=O)O)C(=O)N[C@@H]([C@@H](C)O)C(=O)N[C@@H](CC(C)C)C(=O)N[C@H](C(=O)N[C@@H](Cc2c[nH]c3ccccc23)C(=O)N[C@@H](CCC(=O)O)CC(=O)N[C@H](CCCCNC(=O)COCC(=O)NCCCC[C@@H](NC(=O)C[C@H](CCC(=O)O)NC(=O)[C@H](Cc2c[nH]c3ccccc23)NC(=O)[C@H]2NC(=O)[C@H](CC(C)C)NC(=O)[C@H]([C@@H](C)O)NC(=O)[C@H](CC(=O)O)NC(=O)[C@H](CO)NC(=O)[C@H](CCCNC(=N)N)N(C)C(=O)[C@@H](NC(C)=O)C(C)(C)SSC2(C)C)C(N)=O)C(N)=O)C(C)(C)SSC1(C)C` [compound 213, [Ac-Pen-(N-Me-Arg)-Ser-Asp-Thr-Leu-Pen-Trp-(β-homoGlu)-(D-Lys)-NH2]2-DIG] (I: Ac-[Pen][NMeR]SDTL[Pen]W[β3hE][dK]-NH2 / II: Ac-[Pen][NMeR]SDTL[Pen]W[β3hE][dK]-NH2; disulfide I:1-I:7, II:1-II:7; linker I:10-II:10 via Diglycolyl), the IC50 (α4β1; [3]) is reported as greater than 100 µM and the IC50 (α4β7; Table 4-B, read-out: Cell Adhesion α4β7 Mouse IC50) is reported as 0.0042 µM.
`CC(=O)N[C@H]1CSSC[C@@H](C(=O)NCC(=O)N[C@@H](CCC(=O)O)C(=O)N[C@@H](CCCCN)C(N)=O)NC(=O)[C@H](CC(C)C)NC(=O)[C@H]([C@@H](C)O)NC(=O)[C@H](CC(=O)O)NC(=O)[C@H](CO)NC(=O)[C@H](CCCNC(=N)N)NC1=O` [compound 196, Ac-C-R-S-D-T-L-C-G-E-K-NH2] (Ac-CRSDTLCGEK-NH2; disulfide 1-7) was tested, and the IC50 (α4β1; [3]) was greater than 100 µM.
